Source: US12662479B2 (Foghorn Therapeutics Inc., priority 2020, dated 2026)

What was measured:
[1] = target: T1, HiBit-BRM fusion protein (Homo sapiens, UniProt P51531); assay: HiBiT-BRM cell-based degradation assay (Nano-Glo HiBiT Lytic Detection, 24 h); conditions: HeLa cells expressing HiBiT-BRM; for DC50: read-out: BRM HiBit Degradation IC50; for BRM HiBit Degradation Maximum measured: top dose 30 μM
T1 construct: expressed in transfected cells
Procedure: (§1) Procedure: A stable HeLa cell line expressing HiBiT-BRM was generated. On day 0, 5000 cells were seeded in 40 μL of media into each well of 384-well cell culture plates. On day 1, cells were treated with 120 nL DMSO or 120 nL of 3-fold serially DMSO-diluted compounds (10 points in duplicate with 30 μM as final top dose). Subsequently plates were incubated for 24 h in a standard tissue culture incubator and equilibrated at room temperature for 15 minutes. Nano-Glo HiBiT Lytic Detection System (Promega N3050) reagent was freshly prepared and 20 ul was added to each well. Upon addition of this LgBit-containing reagent, the HiBiT and LgBiT proteins associate to form the luminescent NanoBiT luciferase. The plates were shaken for 10 minutes at room temperature and the bioluminescence read using an EnVision plate reader (PerkinElmer).
(§2) The degradation % was calculated using the following formula: % degradation=100%−100%×(LumSample−LumLC)/(LumHC−LumLC). DMSO treated cells are employed as High Control (HC) and 2 μM of a known BRM/BRG1 degrader standard treated cells are employed as Low Control (LC).

[2] = target: T2, HiBit-BRG1 fusion protein (Homo sapiens, UniProt P51532); assay: HiBiT-BRG1 cell-based degradation assay (Nano-Glo HiBiT Lytic Detection, 24 h); conditions: HeLa cells expressing HiBit-BRG1 and LgBit; for DC50: read-out: BRG1 HiBit Degradation IC50; for Dmax: HeLa, top dose 30 μM, read-out: BRG1 HiBit Degradation Maximum measured
T2 construct: expressed in transfected cells
T2 sequence (P51532 whole entry, the tested form may be a part): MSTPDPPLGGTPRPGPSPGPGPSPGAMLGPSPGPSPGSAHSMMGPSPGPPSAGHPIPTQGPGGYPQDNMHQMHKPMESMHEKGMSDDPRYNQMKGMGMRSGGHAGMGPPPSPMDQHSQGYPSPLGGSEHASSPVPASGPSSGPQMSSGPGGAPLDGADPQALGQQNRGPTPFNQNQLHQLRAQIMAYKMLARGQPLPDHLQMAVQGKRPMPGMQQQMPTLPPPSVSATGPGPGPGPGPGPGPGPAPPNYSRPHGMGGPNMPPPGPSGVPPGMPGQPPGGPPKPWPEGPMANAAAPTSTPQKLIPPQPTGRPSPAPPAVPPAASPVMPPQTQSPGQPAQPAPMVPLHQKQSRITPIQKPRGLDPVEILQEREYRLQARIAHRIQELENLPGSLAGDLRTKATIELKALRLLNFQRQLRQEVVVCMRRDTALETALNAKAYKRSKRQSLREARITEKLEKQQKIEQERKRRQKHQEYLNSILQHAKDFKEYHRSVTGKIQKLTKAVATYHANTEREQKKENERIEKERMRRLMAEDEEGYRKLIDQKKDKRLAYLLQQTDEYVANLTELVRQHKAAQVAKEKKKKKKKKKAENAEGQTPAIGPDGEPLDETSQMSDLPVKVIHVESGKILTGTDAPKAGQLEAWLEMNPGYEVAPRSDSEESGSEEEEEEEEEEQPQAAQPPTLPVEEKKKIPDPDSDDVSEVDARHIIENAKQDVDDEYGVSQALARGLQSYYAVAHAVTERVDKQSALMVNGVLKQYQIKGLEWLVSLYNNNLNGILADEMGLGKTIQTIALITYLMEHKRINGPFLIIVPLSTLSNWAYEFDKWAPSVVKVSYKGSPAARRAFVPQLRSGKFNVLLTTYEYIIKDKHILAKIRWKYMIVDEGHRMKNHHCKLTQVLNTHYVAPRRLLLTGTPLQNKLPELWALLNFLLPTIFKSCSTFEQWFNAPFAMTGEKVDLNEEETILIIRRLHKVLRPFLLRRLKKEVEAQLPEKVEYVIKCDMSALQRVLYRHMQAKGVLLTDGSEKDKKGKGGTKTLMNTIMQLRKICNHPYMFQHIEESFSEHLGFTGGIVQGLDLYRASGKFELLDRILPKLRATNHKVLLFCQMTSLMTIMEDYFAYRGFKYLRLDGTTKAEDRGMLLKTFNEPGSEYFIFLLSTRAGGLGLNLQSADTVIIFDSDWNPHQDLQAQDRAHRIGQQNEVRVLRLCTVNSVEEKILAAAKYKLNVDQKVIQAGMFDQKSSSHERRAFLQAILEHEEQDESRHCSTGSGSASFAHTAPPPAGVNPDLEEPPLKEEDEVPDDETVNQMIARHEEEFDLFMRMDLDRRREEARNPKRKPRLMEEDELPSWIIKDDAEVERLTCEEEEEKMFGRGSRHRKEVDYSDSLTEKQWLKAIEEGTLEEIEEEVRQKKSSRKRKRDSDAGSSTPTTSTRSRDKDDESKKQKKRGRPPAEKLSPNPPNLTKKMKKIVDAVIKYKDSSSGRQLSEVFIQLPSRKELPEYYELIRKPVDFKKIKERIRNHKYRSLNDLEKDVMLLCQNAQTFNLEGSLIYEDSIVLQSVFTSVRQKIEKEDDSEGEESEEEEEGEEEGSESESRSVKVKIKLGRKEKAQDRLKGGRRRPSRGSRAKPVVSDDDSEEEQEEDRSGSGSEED
Procedure: as §1, with “On day 1, cells were treated with 120 nL DMSO or 120 nL of 3-fold serially DMSO-diluted compounds (10 points in duplicate with 30 μM as final top dose). Subsequently plates were incubated for 24 h in a standard tissue culture incubator and equilibrated at room temperature for 15 minutes.” left out
For measurement of BRG1 degradation, a stable HeLa cell line expressing HiBit-BRG1 and LgBit was generated. The same protocol as above was then followed.
as §2

T1 sequence (P51531 whole entry, the tested form may be a part): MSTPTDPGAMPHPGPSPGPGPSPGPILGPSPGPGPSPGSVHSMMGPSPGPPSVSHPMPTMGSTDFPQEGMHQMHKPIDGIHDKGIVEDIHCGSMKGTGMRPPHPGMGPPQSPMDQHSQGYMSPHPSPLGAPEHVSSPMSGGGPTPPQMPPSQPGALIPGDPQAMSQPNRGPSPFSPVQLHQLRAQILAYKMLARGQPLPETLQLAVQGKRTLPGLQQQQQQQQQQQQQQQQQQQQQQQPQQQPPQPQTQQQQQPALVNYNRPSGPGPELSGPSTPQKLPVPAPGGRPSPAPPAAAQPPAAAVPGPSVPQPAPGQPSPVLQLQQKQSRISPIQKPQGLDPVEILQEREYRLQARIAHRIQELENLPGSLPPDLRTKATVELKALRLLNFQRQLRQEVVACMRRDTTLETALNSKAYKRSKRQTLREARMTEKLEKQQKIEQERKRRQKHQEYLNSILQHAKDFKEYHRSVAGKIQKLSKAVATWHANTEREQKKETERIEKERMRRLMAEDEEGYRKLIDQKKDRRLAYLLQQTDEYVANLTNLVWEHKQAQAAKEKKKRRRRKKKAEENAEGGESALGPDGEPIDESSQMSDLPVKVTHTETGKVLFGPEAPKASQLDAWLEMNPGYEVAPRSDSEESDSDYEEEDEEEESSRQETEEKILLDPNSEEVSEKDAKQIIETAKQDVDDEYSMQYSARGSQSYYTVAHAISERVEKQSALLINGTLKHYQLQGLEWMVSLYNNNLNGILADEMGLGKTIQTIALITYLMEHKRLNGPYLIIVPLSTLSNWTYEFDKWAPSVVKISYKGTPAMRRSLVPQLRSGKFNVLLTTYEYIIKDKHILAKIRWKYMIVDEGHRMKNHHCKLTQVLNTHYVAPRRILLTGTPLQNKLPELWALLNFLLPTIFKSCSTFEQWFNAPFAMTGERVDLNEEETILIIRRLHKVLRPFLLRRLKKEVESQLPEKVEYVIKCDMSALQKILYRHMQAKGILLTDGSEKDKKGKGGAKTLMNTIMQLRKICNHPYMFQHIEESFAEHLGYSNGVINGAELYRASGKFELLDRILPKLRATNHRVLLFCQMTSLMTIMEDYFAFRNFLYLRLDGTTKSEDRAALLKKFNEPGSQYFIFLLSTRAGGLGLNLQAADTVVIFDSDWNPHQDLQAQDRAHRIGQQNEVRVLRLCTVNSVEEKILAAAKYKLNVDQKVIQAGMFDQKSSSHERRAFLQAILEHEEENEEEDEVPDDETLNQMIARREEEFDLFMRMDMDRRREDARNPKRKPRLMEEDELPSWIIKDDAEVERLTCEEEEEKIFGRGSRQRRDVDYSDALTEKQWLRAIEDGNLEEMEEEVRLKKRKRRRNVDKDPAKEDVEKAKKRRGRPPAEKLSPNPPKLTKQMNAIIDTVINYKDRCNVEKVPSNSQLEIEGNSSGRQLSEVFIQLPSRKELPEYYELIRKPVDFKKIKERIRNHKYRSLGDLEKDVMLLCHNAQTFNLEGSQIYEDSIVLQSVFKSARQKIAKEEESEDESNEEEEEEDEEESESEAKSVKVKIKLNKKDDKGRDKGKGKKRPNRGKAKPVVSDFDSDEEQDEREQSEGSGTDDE

Structure (SMILES)	DC50 [1] [µM]	BRM HiBit Degradation Maximum measured [1]	DC50 [2] [µM]	Dmax [2] [%]
CS(=O)(=O)n1ccc(C(=O)N[C@@H](CCCCNC(=O)CCCCCCOc2cccc3c2C(=O)N(C2CCC(=O)NC2=O)C3=O)C(=O)Nc2nc(-c3ccccc3)cs2)c1 (stereo partly drawn) [Compound 290, 7-[[2-(2,6-dioxopiperidin-3-yl)-1,3-dioxoisoindol-4-yl]oxy]-N-[(5S)-5-[(1-methanesulfonylpyrrol-3-yl)formamido]-5-[(4-phenyl-1,3-thiazol-2-yl)carbamoyl]pentyl]heptanamide]	> 10	C (‘C’ = Maximum degradation <50%)	> 10	< 50
Cc1ncsc1-c1ccc(CNC(=O)[C@@H]2C[C@@H](O)CN2C(=O)[C@@H](NC(=O)CCCCCCCCCCCCCCC(=O)NCc2cccc(-c3cccc(-c4csc(NC(=O)CNC(=O)c5ccn(S(C)(=O)=O)c5)n4)c3)c2)C(C)(C)C)cc1 [Compound 120, N1-((S)-1-((2S,4R)-4-hydroxy-2-((4-(4-methylthiazol-5-yl)benzyl)carbamoyl)pyrrolidin-1-yl)-3,3-dimethyl-1-oxobutan-2-yl)-N16-((3′-(2-(2-(1-(methylsulfonyl)-1H-pyrrole-3-carboxamido)acetamido)thiazol-4-yl)-[1,1′-biphenyl]-3-yl)methyl)hexadecanediamide]	> 10	C (‘C’ = Maximum degradation <50%)	> 10	< 50
CS(=O)(=O)n1ccc(C(=O)N[C@@H](COCc2ccc(C(=O)NCCOC3CN(c4ccc5c(c4)C(=O)N(C4CCC(=O)NC4=O)C5=O)C3)cc2)C(=O)Nc2nc(-c3ccccc3)cs2)c1 (stereo partly drawn) [Compound 246, N-[2-([1-[2-(2,6-dioxopiperidin-3-yl)-1,3-dioxoisoindol-5-yl]azetidin-3-yl]oxy)ethyl]-4-[[(2S)-2-[(1-methanesulfonylpyrrol-3-yl)formamido]-2-[(4-phenyl-1,3-thiazol-2-yl)carbamoyl]ethoxy]methyl]benzamide]	0.1 to 1	B (‘B’ = Maximum degradation ≥50% and ≤75%)	0.1 to 1	> 75

Further lines, results first:

DC50 [1] [µM]	BRM HiBit Degradation Maximum measured [1]	DC50 [2] [µM]	Dmax [2] [%]	Structure (SMILES)
< 0.1	A (‘A’ = Maximum degradation >75%)	< 0.1	> 75	CS(=O)(=O)n1ccc(C(=O)NCC(=O)Nc2nc(-c3cccc(-c4ccnc(C5(C(=O)NCCNc6ccc7c(c6)CN(C6CCC(=O)NC6=O)C7=O)CC5)c4)c3)cs2)c1 (stereo not drawn) [Compound 167, N-(2-[[2-(2,6-dioxopiperidin-3-yl)-1-oxo-3H-isoindol-5-yl]amino]ethyl)-1-[4-[3-(2-[2-[(1-methanesulfonylpyrrol-3-yl)formamido]acetamido]-1,3-thiazol-4-yl)phenyl]pyridin-2-yl]cyclopropane-1-carboxamide]
> 10	C (‘C’ = Maximum degradation <50%)	> 10	< 50	CN(CCCCNC(=O)C1(c2cc(-c3cccc(-c4csc(NC(=O)CNC(=O)c5ccn(S(C)(=O)=O)c5)n4)c3)ccn2)CC1)CCCNc1cccc2c1C(=O)N(C1CCC(=O)NC1=O)C2=O (stereo not drawn) [Compound 106, N-(2-((4-(3-(2-(1-((4-((3-((2-(2,6-dioxopiperidin-3-yl)-1,3-dioxoisoindolin-4-yl)amino)propyl)(methyl)amino)butyl)-carbamoyl)cyclopropyl)pyridin-4-yl)phenyl)thiazol-2-yl)amino)-2-oxoethyl)-1-(methylsulfonyl)-1H-pyrrole-3-carboxamide]
> 10	C (‘C’ = Maximum degradation <50%)	> 10	< 50	CN(CC(=O)NCCCCCNc1cccc2c1C(=O)N(C1CCC(=O)NC1=O)C2=O)c1cc(-c2cccc(-c3csc(NC(=O)CNC(=O)c4ccn(S(C)(=O)=O)c4)n3)c2)ccn1 (stereo not drawn) [Compound 16, N-(2-((4-(3-(2-((2-((5-((2-(2,6-dioxopiperidin-3-yl)-1,3-dioxoisoindolin-4-yl)amino)pentyl)amino)-2-oxoethyl)(methyl)amino)pyridin-4-yl)phenyl)thiazol-2-yl)amino)-2-oxoethyl)-1-(methylsulfonyl)-1H-pyrrole-3-carboxamide]
